Literature values, collected in patent publication US11464736B2, “Thermally gelling drug formulations” (UNM Rainforest Innovations, priority 2019, dated 2022).

What was measured:
[1] = target: CYP3A4 metabolizing enzyme (Homo sapiens, UniProt P08684)
[2] = not given; remark: listed apart in the source

Chain of CYP3A4 metabolizing enzyme (P08684 whole entry): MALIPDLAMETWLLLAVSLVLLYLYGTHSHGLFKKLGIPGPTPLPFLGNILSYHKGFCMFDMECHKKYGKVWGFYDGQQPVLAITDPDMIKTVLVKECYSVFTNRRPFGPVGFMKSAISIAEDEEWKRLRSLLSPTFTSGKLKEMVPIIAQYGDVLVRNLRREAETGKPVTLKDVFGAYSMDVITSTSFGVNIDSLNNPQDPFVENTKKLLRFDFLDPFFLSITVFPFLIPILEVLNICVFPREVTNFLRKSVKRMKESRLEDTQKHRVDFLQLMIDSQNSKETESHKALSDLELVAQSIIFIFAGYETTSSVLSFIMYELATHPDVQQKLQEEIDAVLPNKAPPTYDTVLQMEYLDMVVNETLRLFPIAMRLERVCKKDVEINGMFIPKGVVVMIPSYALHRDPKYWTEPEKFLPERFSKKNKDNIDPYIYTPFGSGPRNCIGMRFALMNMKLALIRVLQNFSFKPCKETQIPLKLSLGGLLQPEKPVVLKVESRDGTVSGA

Row | Compound | inhibition of CYP3A4 [1] | increase of oral bioavailability when taken with food | log P [2]
1 | CC(=O)C(C)n1ncn(-c2ccc(N3CCN(c4ccc(OC[C@H]5CO[C@](Cn6cncn6)(c6ccc(Cl)cc6Cl)O5)cc4)CC3)cc2)c1=O (mixture of isomers) [keto-itraconazole] | competitive inhibitors |  | 
2 | CCC(C)n1ncn(-c2ccc(N3CCN(c4ccc(OCC5COC(Cn6cncn6)(c6ccc(Cl)cc6Cl)O5)cc4)CC3)cc2)c1=O (centres unmarked) [ITZ, Itraconazole] |  | 33-37% | 5.7-6.2
3 | O=c1[nH]ncn1-c1ccc(N2CCN(c3ccc(OCC4COC(Cn5cncn5)(c5ccc(Cl)cc5Cl)O4)cc3)CC2)cc1 (centres unmarked) [N-desalkyl-itraconazole] | competitive inhibitors |  | 
4 | hydroxy-itraconazole | competitive inhibitors |  | 
